The NIST ThermoML archive (doi:10.1016/j.fluid.2007.07.066)

Experiment: wn = mass fraction of the nth substance listed
Details: 101 kPa, Liquid; for speed of sound: Sing-around technique in a fixed-path interferometer

CCCO [propan-1-ol] + O
Details | mass density, 283.15 K [kg/m3] | mass density, 288.15 K [kg/m3] | mass density, 293.15 K [kg/m3] | mass density, 298.15 K [kg/m3] | mass density, 303.15 K [kg/m3] | speed of sound, 283.15 K [m/s] | speed of sound, 288.15 K [m/s] | speed of sound, 293.15 K [m/s] | speed of sound, 298.15 K [m/s] | speed of sound, 303.15 K [m/s]
w1 = 0.05 | 992.444 | 991.727 | 990.715 | 989.431 | 987.905 | 1501.2 | 1514.5 | 1526.2 | 1536.2 | 1544.7
w1 = 0.1 | 987.274 | 986.285 | 985.011 | 983.475 | 981.701 | 1547.4 | 1555.6 | 1562.4 | 1568 | 1572.2
w1 = 0.15 | 983.045 | 981.663 | 980.011 | 978.117 | 976.004 | 1584 | 1586.5 | 1588.1 | 1588.6 | 1588.1
